Test results: patent publication US8673914B2, “Use of phosphodiesterase inhibitors for treating multidrug resistance” (St. John's University, priority 2011, dated 2014)
Where two headings read alike, the source gives them in different places.

What was measured:
[1] = In vitro transport assay, membrane vesicles; format: biochemical; conditions: HEK293/pcDNA3.1 vesicles
Procedure: Transport assays were carried out using the rapid filtration method as described in Chen et al. (2003) Cancer Res. 63:4048-54. […] Reactions were stopped by the addition of 3 mL of ice-cold stop solution (0.25 M sucrose, 100 mM NaCl, and 10 mM Tris-HCl, pH 7.4). During the rapid filtration step, samples were passed through 0.22 μm GVWP filters (Millipore) presoaked in the stop solution. The filters were washed three times with 3 mL of ice-cold stop solution. Radioactivity was measured by liquid scintillation counting.

parental cells = assay: [^3H]-mitoxantrone accumulation; format: cell-based
Procedure: (§1) After washing 3 times with ice-cold PBS, the cells were trypsinized and lysed in 10 mM lysis buffer (pH 7.4, containing 1% Triton X-100 and 0.2% SDS). Each sample was placed in scintillation fluid and radioactivity was measured in a Packard TRI-CARB 1900CA liquid scintillation analyzer from Packard Instrument Company, Inc.

ABCG2-482-R2 (ABCG2) = assay: MTT cytotoxicity/reversal assay (Example 1); conditions: +10 μM reversal agent
Procedure: (§2) The KB-C2 and KB-3-1 were kindly provided by Dr. Akiyama (Kagoshima University, Japan). HEK293-pcDNA3.1 and wild-type HEK/ABCG2 transfected cells were established by selection with G418 after transfecting HEK293 with either (1) empty pcDNA3.1 vector or (2) pcDNA3.1 vector containing full length of ABCG2 coding arginine (R) at amino acid position 482, and were then cultured in a medium with 2 mg/ml of G418 (ABCG2-482-R2 cells). Similarly, the HEK/MRP1 (ABCC1) and HEK/ABCB1 cells were generated by transfecting the HEK293 cells with either the MRP1 expression vector or the ABCB1 expression vector. All of the cell lines were grown in Dulbecco's modified Eagle's medium (DMEM) supplemented with 10% bovine serum, 100 units/ml penicillin, and […] streptomycin in a humidified incubator containing 5% CO2 at 37° C.
(§3) The MTT assay was used to assess cytotoxicity. The cultured cells were harvested with trypsin and resuspended in a final concentration of 4×10^3 cells/well for KB-3-1; 7.5×10^3 cells/well for KB-C2; and 8×10^3 for all of the other cell lines used in this study. Cells were seeded evenly in 96-well multiplates. […] After 68 h of incubation, 20 μl of the MTT solution (4 mg/ml) was added to each well, and the plate was further incubated for 4 h at 37° C., allowing viable cells to convert the yellow-colored MTT into dark-blue formazan crystals. Subsequently, the medium was discarded, and 100 μl of DMSO was added into each well to dissolve the formazan crystals, generating purple color. The absorbance was determined at 570 nm by an OPSYS Microplate Reader from DYNEX Technologies, Inc. (Chantilly, Va.). […] The degree of the reversal of multidrug resistance (MDR) was calculated by dividing the IC50 of an anticancer drug, e.g., an antineoplastic or chemotherapeutic drug (agent, compound), in a cell type in the absence of a reversal agent by the IC50 of the anticancer drug in the same cell type in the presence of the reversal agent. The IC50 values were calculated from survival curves using the Bliss method.

HEK293/pcDNA3.1 = assay: MTT cytotoxicity/reversal assay (Example 1); format: cell-based; conditions: for fold reversal, vincristine: alone
Procedure: as §2, §3

ABCG2 [2] = biological target: T1, ABCG2 (Homo sapiens, UniProt Q9UNQ0); assay: Photoaffinity labeling with [^125I]-IAAP (Example 2); format: binding; design: endogenous in cells; host or cells: MCF7/FLV1000 (MCF-7/Flv1000) crude membranes; conditions: 10 μM
T1 sequence (Q9UNQ0 whole entry): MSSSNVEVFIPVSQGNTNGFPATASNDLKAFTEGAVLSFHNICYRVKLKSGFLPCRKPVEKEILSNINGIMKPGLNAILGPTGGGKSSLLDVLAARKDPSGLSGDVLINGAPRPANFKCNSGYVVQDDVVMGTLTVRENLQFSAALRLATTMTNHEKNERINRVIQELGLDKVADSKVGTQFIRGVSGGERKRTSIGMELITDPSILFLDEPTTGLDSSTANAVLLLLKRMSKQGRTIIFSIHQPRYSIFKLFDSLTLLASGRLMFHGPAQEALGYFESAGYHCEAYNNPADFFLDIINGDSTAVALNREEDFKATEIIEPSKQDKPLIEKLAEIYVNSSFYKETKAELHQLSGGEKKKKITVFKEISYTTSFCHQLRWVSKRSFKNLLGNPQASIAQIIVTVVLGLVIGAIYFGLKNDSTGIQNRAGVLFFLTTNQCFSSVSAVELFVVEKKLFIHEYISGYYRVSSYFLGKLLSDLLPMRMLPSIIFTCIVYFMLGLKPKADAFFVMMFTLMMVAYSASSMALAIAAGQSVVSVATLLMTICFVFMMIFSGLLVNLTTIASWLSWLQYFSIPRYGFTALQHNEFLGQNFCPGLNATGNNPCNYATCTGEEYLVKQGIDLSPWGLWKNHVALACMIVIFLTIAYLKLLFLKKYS
Procedure: The photoaffinity labeling of ABCB1 and ABCG2 with [^125I]-IAAP was conducted as described in Sauna et al., supra. The crude membranes from HIGH FIVE™ insect cells expressing ABCB1 and MCF7/FLV1000 cells expressing R482 ABCG2 (50 μg of protein) were incubated at room temperature with different concentrations of drugs in 50 mM Tris-HCl (pH 7.5) with [^125I]-IAAP (5-7 nM) for 5 min under subdued light. […] ABCB1 and ABCG2 were immunoprecipitated using BXP-21 antibodies as described in Shukla et al., supra. Both ABCB1 and ABCG2 samples were subjected to SDS-PAGE in a 7% Trisacetate NuPAGE gel, the gel was dried, and exposed to Bio-Max MR film (Eastman Kodak Co.) at −70° C. for 8 to 12 h. The radioactivity incorporated into the ABCB1 or ABCG2 band was quantified using the STORM 860 Phosphorlmager System and ImageQuaNT (Molecular Dynamics).

[3] = tested on: MRP7 localization in HEK/MRP7 cells; assay: Immunofluorescence of MRP7; format: cell-based; conditions: 5 μM; 72 h
Procedure: HEK/MRP7 cells (1×10^4) were seeded in 24 well plates and cultured overnight. […] Cells were washed with PBS and fixed with 4% paraformaldehyde for 15 min at room temperature and then rinsed with PBS three times. Nonspecific reaction was blocked with 1% BSA for 1 h at room temperature. A polyclonal antibody D19 against MRP7 (1:200) was added and incubated overnight. […] DAPI was used for nuclear staining. Immunofluorescent images were taken with an inverted microscope (model IX70; Olympus, Center Valley, Pa.) with IX-FLA fluorescence and CCD camera.

[4] = tested on: any of the cell lines used; assay: MTT assay, sildenafil alone; format: cell-based; conditions: concentrations of up to 50 μM
Procedure: Cells in 96-well plates were preincubated with or without the reversal agents for 1 h and then different concentrations of chemotherapeutic drugs were added into designated wells. After 68 h of incubation, MTT solution (4 mg/mL) was added to each well, and the plate was further incubated for 4 h, allowing viable cells to change the yellow-colored MTT into dark-blue formazan crystals. Subsequently the medium was discarded, and […] of DMSO was added into each well to dissolve the formazan crystals. The absorbance was determined at 570 nm by an OPSYS MR Microplate Reader from DYNEX Technologies, Inc.

[5] = tested on: cells expressing wild-type or mutant ABCG2; assay: BODIPY-prazosin flow cytometric assay; format: cell-based; conditions: 50 μM; weaker than FTC at […]
Procedure: Flow cytometric assays were carried out as follows. […] Cells were then washed once in cold complete medium and then incubated for another 1 h at 37° C. in substrate-free media with or without the same described concentrations of the inhibitors to generate the efflux histograms. Subsequently, cells were washed twice with cold DPBS (Dulbecco's PBS) and placed on ice in a dark environment until ready for analysis. […] For all samples, at least 10,000 events were collected. Cell debris was eliminated by gating on forward versus side scatter, and dead cells were excluded on the basis of propidium iodide staining.

KB-3-1 cells = assay: [^3H]-paclitaxel accumulation (Example 2); format: cell-based, human; conditions: parental KB-3-1
Procedure: as §1

HEK/MRP7 cells [6] = assay: [^3H]-paclitaxel efflux (Example 4); format: cell-based; conditions: 5 μM PDE5 inhibitor
Procedure: (§4) The effect of PDE5 inhibitors on the intracellular accumulation of paclitaxel in HEK293-pcDNA3.1 and HEK/MRP7 cells was measured using [^3H]-paclitaxel. […] For efflux studies, the cells were treated the same as in the drug accumulation study, and then washed three times with ice-cold PBS, and suspended in fresh medium with or without PDE5 inhibitors. Aliquots were evenly collected at various time points (0, 30, 60, and 120 min). Samples from both accumulation and efflux experiments were washed with ice-cold PBS three times and placed in scintillation fluid, and the radioactivity was measured in a Packard TRI-CARB® 1900CA liquid scintillation analyzer from Packard Instrument Company, Inc. (Downers Grove, Ill.).

ABCG2 [7] = biological target: T1, ABCG2; assay: Vi-sensitive ATPase assay (Example 2); format: biochemical; conditions: read-out: concentration required for 50% stimulation of ATPase activity
Procedure: (§5) The vanadate (Vi)-sensitive ATPase activity of ABCB1 or ABCG2 in the membrane vesicles of HIGH FIVE™ insect cells was measured as described in Ambudkar et al., supra. The membrane vesicles (100 μg of protein/mL) were incubated in ATPase assay buffer (50 mM MES, pH 6.8, 50 mM KCl, 5 mM sodium azide, 2 mM EGTA, 2 mM dithiothreitol, 1 mM ouabain, and 10 mM MgCl2) with or without 0.3 mM vanadate at 37° C. for 5 min, and then incubated with different concentrations of drugs at 37° C. for 3 min. The ATPase reaction was […] by the addition of 5 mM Mg-ATP. After incubating at 37° C. for 20 min, the reactions were stopped by adding 0.1 mL of 5% SDS solution. The liberated inorganic phosphate was measured as described in Shukla et al. (2006) Biochemistry 45:8940-51.

ABCB1 = biological target: T2, ABCB1 (Homo sapiens, UniProt P08183); assay: Vi-sensitive ATPase assay (Example 2); format: biochemical; conditions: read-out: concentration required for 50% stimulation of ATPase activity
T2 construct: made in house; host or cells: High Five insect cells (membrane vesicles / crude membranes)
T2 sequence (P08183 whole entry): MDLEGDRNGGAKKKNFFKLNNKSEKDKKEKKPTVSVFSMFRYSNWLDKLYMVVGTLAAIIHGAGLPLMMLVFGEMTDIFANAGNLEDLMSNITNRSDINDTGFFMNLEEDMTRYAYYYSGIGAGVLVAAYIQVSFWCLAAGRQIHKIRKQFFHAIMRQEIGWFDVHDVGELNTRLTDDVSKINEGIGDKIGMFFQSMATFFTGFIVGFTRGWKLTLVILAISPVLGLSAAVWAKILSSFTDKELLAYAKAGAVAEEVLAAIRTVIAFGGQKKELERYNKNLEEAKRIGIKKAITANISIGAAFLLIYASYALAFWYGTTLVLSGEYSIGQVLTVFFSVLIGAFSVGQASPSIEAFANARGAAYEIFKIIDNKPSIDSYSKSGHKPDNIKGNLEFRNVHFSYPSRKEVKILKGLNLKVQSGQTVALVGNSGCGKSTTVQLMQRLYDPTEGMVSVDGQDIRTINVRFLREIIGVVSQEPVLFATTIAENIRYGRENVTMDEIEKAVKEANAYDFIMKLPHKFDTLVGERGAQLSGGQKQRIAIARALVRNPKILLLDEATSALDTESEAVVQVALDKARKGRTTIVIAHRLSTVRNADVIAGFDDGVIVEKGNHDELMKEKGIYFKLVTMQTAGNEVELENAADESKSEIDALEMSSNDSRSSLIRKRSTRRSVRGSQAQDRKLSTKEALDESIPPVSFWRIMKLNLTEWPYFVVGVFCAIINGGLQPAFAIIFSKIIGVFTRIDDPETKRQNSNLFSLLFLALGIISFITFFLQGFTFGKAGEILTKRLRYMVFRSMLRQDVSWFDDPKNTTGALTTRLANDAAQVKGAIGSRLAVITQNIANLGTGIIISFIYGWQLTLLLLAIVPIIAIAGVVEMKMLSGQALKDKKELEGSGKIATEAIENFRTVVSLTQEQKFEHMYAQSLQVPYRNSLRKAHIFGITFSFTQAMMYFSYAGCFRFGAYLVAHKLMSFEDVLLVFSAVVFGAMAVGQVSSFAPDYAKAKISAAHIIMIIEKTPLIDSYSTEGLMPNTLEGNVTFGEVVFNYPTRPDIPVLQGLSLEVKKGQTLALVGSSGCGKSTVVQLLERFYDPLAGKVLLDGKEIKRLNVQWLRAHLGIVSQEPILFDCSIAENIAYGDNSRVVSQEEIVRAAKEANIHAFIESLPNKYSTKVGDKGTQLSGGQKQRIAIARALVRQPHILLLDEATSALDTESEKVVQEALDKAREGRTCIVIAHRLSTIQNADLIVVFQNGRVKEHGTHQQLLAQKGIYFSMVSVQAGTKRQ
Procedure: as §5

HEK/MRP7 cells [8] = assay: [^3H]-paclitaxel accumulation (Example 4); format: cell-based; conditions: 5 μM, 2 h
Procedure: as §4

[9] = tested on: ABCG2-overexpressing cell lines; assay: [^3H]-mitoxantrone accumulation; format: cell-based; conditions: 10 or 50 μM
Procedure: as §1, with “Cells in 24-well plates were preincubated with or without the reversal agents for 1 h at 37° C., then incubated with 0.1 μM [^3H]-paclitaxel or 0.2 μM [^3H]-mitoxantrone for 2 h in the presence or absence of the reversal agents at 37° C. After” for “After”

KB-C2 xenografts = assay: Mouse tumor xenografts; format: in vivo, mice; conditions: sildenafil 75 mg/kg p.o. + paclitaxel 18 mg/kg i.p. vs paclitaxel alone
Text: Six-to-eight-week old male athymic NCR nude mice from Taconic (Hudson, N.Y.) were used for all xenografts. The mice were provided with sterilized food and water. The animal protocol was reviewed and approved by the Institutional Animal Care and Use Committee at St. John's University. […] When the tumors reached 0.5 cm, the mice were randomized into four groups, six mice per group: […] […] Mice were euthanized when the tumor weight exceeded 1 gram in the control group, and the tumors were excised and weighed.

[10] = tested on: KB-C2 and KB-V1 cells (ABCB1); assay: [^3H]-paclitaxel accumulation (Example 2); format: cell-based, human; conditions: 10 μM
Procedure: as §1, with “Cells in 24-well plates were preincubated with or without the reversal agents for 1 h at 37° C., then incubated with 0.1 μM [^3H]-paclitaxel or 0.2 μM [^3H]-mitoxantrone for 2 h in the presence or absence of the reversal agents at 37° C. After” for “After”

[11] = MTT cytotoxicity/reversal assay (Example 1); format: cell-based; conditions: human; HEK/MRP1; alone; read-out: IC50 of vincristine
Procedure: (§6) The KB-C2 and KB-3-1 were kindly provided by Dr. Akiyama (Kagoshima University, Japan). […] Similarly, the HEK/MRP1 (ABCC1) and HEK/ABCB1 cells were generated by transfecting the HEK293 cells with either the MRP1 expression vector or the ABCB1 expression vector. All of the cell lines were grown in Dulbecco's modified Eagle's medium (DMEM) supplemented with 10% bovine serum, 100 units/ml penicillin, and […] streptomycin in a humidified incubator containing 5% CO2 at 37° C.
as §3

HEK/MRP1 (ABCC1) = assay: MTT cytotoxicity/reversal assay (Example 1); format: cell-based; conditions: alone
Procedure: as §6, §3

HEK/ABCB1 (ABCB1) = assay: MTT cytotoxicity/reversal assay (Example 1); conditions: HEK/ABCB1; alone
Procedure: as §6, §3

[12] = MTT cytotoxicity/reversal assay (Example 1); conditions: human
Procedure: as §6, §3

For COc1ccc2c3c([nH]c2c1)[C@H](C=C(C)C)N1C(=O)[C@@H]2CCCN2C(=O)[C@@H]1C3 [FTC, Fumitremorgin C], the “uptake rates of methotrexate and E217βG” value [1] was “moderately decreased the uptake rates”, the “intracellular levels of [^3H]-mitoxantrone” value (parental cells) was “Neither sildenafil nor FTC affected the intracellular levels” and the “fold reversal, SN-38” value (ABCG2-482-R2 (ABCG2)) was “(3.84)”. The “fold reversal, SN-38” value (HEK293/pcDNA3.1; HEK293/pcDNA3.1, +10 μM reversal agent) was “(1.13)” and the “inhibition of [^125I]-IAAP photolabeling” value (ABCG2 [2]) was “about 40%”.
For CCCc1nn(C)c2c(=O)nc(-c3cc(S(=O)(=O)N4CCN(C)CC4)ccc3OCC)[nH]c12 [Sildenafil, sildenafil], the “MRP7 protein localization in plasma membranes” value [3] was “no alteration of MRP7 protein localization”, the “growth inhibition by sildenafil alone” value [4] was “did not inhibit the growth of any of the cell lines used” and the “accumulation of BODIPY-prazosin” value [5] was “enhanced the accumulation of BODIPY-prazosin”. The “intracellular levels of [^3H]-paclitaxel” value (KB-3-1 cells) was “Neither sildenafil nor verapamil altered the intracellular levels”, the “intracellular levels of [^3H]-mitoxantrone” value (parental cells) was “Neither sildenafil nor FTC affected the intracellular levels” and the “percentage of intracellular [^3H]-paclitaxel” value (from here on “percentage of intracellular”) (HEK/MRP7 cells [6]; 30 min) was 90.62%. For the same compound, the “percentage of intracellular” value (HEK/MRP7 cells [6]; 60 min) was 82.14%, the “percentage of intracellular” value (HEK/MRP7 cells [6]; 120 min) was 62.35% and the EC50 (ABCG2 [7]) was 250 to 500 nM. For the same compound, the EC50 (ABCB1) was 5000 to 10000 nM, the “increase of intracellular accumulation of [^3H]-paclitaxel” value (HEK/MRP7 cells [8]) was 3.3 fold and the “intracellular [^3H]-mitoxantrone levels” value [9] was “elevated intracellular [^3H]-mitoxantrone levels”. The “tumor weight and volume” value (KB-C2 xenografts) was “significant reduction in tumor weight and volume” and the “intracellular level of [^3H]-paclitaxel” value [10] was “significantly increased the intracellular level”.
For COc1ccc(CCN(C)CCCC(C#N)(c2ccc(OC)c(OC)c2)C(C)C)cc1OC (centres unmarked) [Verapamil, verapamil], the “intracellular levels of [^3H]-paclitaxel” value (KB-3-1 cells) was “Neither sildenafil nor verapamil altered the intracellular levels”.
With CC[C@]1(O)C[C@H]2CN(CCc3c([nH]c4ccccc34)[C@@](C(=O)OC)(c3cc4c(cc3OC)N(C=O)[C@H]3[C@@](O)(C(=O)OC)[C@H](OC(C)=O)[C@]5(CC)C=CCN6CC[C@]43[C@@H]65)C2)C1 [Vincristine, vincristine] the “fold reversal, vincristine” value (HEK293/pcDNA3.1; HEK293/pcDNA3.1 (Table 6)) was “(1.00)”, the “fold reversal, vincristine” value (HEK293/pcDNA3.1; HEK293/pcDNA3.1) was “(1.00)” and the IC50 at 68 h [11] was 10.6 ± 2.2 nM. The “fold reversal, vincristine” value (HEK/MRP1 (ABCC1)) was “(1.00)”, the “fold reversal, vincristine” value (HEK/ABCB1 (ABCB1)) was “(1.00)” and the IC50 at 68 h [12] was 170000 ± 12900 nM.
